Data reported in US20100129428A1, “SUPRA MOLECULAR CONSTRUCT FOR DELIVERY OF INTERFERON TO A MAMMAL” (SDG, Inc., priority 2005, published 2010).

Experiments:
hepatitis C virus = settings: chronic hepatitis C; treatment with interferon alone; cited from earlier work
[1] = test system: double stranded RNA dependent protein kinase (PKR) gene; assay: Induction of PKR mRNA in liver and spleen of mice, real time quantitative PCR; type: in vivo, mouse
Experimental: The efficacy of HDV-interferon alpha was evaluated in a mouse model having a genetic marker response to the hepatic effect of interferon. C57B16 mice were obtained from Jackson Laboratory and a breeding colony was established at Cleveland MetroHealth Center, Cleveland, Ohio. Mice were obtained from the breeding colony. Two groups of mice, a test group and a control group, were treated. The test group received Interferon+HDV, while the control group received Interferon alone. HDV-Interferon comprised 100 mcg HDV to 10 mcg Interferon alpha. HDV was supplied by Hepasome Pharmaceuticals and Roeferon was the source of the interferon alpha. The HDV and interferon alpha were allowed to equilibrate for 12 hours prior to injection into the mice. Mice from both groups were dosed with 100,000 U/kg body wt. To test the timing of response to IFN, Roferon was subcutaneously injected into the mice. The mice were sacrificed at 6 hours after dosing. The spleen and liver of the sacrificed […] were obtained for analysis. […] The assay used real time quantitative PCR (polymerase chain reaction) to assay the level of PKR messenger ribonucleic acid (mRNA). […] The produced cDNAs were subjected to semi-quantitative PCR, the 6 hour time point was selected for the HDV experiments. […] Real time quantitative PCR was performed on the produced cDNAs using cybr green technology. […]

## interferon alpha
Hepatitis C virus
  sustained response: less than 15 % of subjects
[1]; PKR mRNA, C57B16 mice, 100,000 U/kg body wt, subcutaneous, 6 hours after dosing, FIG. 12a
  relative expression level in the spleen compared to the relative expression level in the liver: approximately twice
[1]; hepatic PKR activation, mouse model, FIG. 13
  increase in PKR activation relative to a baseline: ~5 fold
